Data from the kinase profiling compilation of Christmann-Franck et al. (2016).

Key:
Assay in all cases: radiometric filter-binding kinase assay, Kinase HotSpot
Conditions in all cases: compound 0.5 µM; ATP 10 µM
[1] = target: PDPK1 (human) (UniProt O15530)
[2] = target: AURKC (human) (UniProt Q9UQB9)
[3] = target: NEK11 (human) (UniProt Q8NG66)
[4] = target: ERBB4 (human) (UniProt Q15303)
[5] = target: MAP3K7 TAB1 (human) (UniProt O43318+Q15750)
[6] = target: TNK2 (human) (UniProt Q07912)
[7] = target: PKN2 (human) (UniProt Q16513)
[8] = target: CDK1 CCNA2 (human) (UniProt P06493+P20248)
[9] = target: KIT (human) (UniProt P10721)
[10] = target: DAPK2 (human) (UniProt Q9UIK4)
[11] = target: RET (human) (UniProt P07949)
[12] = target: TSSK1B (human) (UniProt Q9BXA7)
[13] = target: ACVR1B (human) (UniProt P36896)
[14] = target: RPS6KB1 (human) (UniProt P23443)
[15] = target: MAPK14 (human) (UniProt Q16539)
[16] = target: VRK1 (human) (UniProt Q99986)
[17] = target: CLK3 (human) (UniProt P49761)
[18] = target: WEE1 (human) (UniProt P30291)
[19] = target: TEC (human) (UniProt P42680)
[20] = target: CDK6 CCND1 (human) (UniProt Q00534+P24385)
[21] = target: CDK4 CCND3 (human) (UniProt P30281+P11802)
[22] = target: RAF1 (human) (UniProt P04049)
[23] = target: MAP3K2 (human) (UniProt Q9Y2U5)
[24] = target: MERTK (human) (UniProt Q12866)
[25] = target: TAOK2 (human) (UniProt Q9UL54)
[26] = target: PHKG2 (human) (UniProt P15735)
[27] = target: STK11 (human) (UniProt Q15831)
[28] = target: ERBB2 (human) (UniProt P04626)
[29] = target: FES (human) (UniProt P07332)
[30] = target: AKT2 (human) (UniProt P31751)
[31] = target: MAPK1 (human) (UniProt P28482)
[32] = target: KDR (human) (UniProt P35968)
[33] = target: DDR2 (human) (UniProt Q16832)
[34] = target: RPS6KA5 KD2 (human) (UniProt O75582)
[35] = target: CDK5 CDK5R1 p25 (human) (UniProt Q00535+Q15078)
[36] = target: PAK3 (human) (UniProt O75914)
[37] = target: EPHA4 (human) (UniProt P54764)
[38] = target: FGR (human) (UniProt P09769)
[39] = target: PRKACG (human) (UniProt P22612)
[40] = target: CSNK1D (human) (UniProt P48730)
[41] = target: PBK (human) (UniProt Q96KB5)
[42] = target: TAOK1 (human) (UniProt Q7L7X3)

Chain of STK11 (human) (Q15831 whole entry, looked up): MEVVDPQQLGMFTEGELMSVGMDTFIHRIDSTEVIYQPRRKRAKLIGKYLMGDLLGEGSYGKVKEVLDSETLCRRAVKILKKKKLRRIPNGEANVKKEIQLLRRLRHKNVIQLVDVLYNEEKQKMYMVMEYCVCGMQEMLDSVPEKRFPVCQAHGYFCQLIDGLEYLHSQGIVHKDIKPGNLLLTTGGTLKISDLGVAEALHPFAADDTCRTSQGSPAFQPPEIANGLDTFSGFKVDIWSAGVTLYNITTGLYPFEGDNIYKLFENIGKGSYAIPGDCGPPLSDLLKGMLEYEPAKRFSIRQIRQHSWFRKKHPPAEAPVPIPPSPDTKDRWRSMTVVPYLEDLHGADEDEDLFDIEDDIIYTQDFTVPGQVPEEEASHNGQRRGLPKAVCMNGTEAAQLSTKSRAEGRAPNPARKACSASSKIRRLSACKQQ
Chain of ERBB4 (human) (Q15303 whole entry, looked up): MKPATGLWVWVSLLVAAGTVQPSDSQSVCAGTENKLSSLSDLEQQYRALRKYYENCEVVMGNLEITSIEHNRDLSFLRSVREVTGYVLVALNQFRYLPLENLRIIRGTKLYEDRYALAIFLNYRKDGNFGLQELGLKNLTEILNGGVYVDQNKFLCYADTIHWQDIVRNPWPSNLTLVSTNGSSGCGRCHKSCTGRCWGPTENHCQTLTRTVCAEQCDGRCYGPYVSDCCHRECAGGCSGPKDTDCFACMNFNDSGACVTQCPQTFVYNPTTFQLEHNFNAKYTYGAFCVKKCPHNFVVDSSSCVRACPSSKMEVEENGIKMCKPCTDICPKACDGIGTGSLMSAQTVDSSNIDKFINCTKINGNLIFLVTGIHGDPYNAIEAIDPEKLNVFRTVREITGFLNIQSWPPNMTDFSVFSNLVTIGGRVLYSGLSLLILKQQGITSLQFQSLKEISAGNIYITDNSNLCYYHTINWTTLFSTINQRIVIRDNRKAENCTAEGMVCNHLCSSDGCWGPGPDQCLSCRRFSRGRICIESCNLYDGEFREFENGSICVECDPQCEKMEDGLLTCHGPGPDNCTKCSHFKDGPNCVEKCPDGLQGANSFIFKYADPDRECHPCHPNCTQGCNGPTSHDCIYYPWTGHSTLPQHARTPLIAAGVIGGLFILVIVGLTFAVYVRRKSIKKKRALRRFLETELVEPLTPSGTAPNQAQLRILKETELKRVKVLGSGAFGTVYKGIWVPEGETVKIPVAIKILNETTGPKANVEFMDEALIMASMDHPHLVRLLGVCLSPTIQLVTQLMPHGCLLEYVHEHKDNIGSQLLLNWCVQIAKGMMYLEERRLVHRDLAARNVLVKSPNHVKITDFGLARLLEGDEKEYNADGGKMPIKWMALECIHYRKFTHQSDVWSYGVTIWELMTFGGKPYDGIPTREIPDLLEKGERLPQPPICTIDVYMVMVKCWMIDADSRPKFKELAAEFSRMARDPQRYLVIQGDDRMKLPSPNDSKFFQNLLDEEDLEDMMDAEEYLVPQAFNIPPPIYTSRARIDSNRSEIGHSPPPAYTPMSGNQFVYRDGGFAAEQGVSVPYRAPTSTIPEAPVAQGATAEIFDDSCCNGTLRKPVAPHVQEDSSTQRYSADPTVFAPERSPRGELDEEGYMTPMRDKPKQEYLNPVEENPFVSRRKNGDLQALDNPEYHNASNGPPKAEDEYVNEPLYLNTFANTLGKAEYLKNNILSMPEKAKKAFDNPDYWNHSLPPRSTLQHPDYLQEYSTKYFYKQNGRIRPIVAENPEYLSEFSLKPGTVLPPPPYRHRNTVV
Chain of MAP3K7 TAB1 (human) (O43318 whole entry, looked up): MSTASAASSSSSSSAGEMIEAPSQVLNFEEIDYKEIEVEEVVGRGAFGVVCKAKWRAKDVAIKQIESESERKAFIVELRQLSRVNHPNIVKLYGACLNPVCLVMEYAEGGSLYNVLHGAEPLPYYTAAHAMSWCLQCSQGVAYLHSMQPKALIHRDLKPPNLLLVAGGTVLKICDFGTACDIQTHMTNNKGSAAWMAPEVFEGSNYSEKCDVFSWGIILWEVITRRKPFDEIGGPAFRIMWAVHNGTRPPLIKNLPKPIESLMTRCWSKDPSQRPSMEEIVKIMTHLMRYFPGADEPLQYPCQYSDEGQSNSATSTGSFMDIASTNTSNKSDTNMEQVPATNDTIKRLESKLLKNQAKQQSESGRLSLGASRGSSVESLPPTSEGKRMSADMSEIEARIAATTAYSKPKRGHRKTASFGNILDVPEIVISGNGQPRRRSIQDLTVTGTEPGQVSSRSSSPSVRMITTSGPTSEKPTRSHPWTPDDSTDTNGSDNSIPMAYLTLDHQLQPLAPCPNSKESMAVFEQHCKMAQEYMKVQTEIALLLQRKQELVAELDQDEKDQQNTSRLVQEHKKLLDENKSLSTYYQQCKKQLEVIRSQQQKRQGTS
Chain of MAP3K7 TAB1 (human) (Q15750 whole entry, looked up): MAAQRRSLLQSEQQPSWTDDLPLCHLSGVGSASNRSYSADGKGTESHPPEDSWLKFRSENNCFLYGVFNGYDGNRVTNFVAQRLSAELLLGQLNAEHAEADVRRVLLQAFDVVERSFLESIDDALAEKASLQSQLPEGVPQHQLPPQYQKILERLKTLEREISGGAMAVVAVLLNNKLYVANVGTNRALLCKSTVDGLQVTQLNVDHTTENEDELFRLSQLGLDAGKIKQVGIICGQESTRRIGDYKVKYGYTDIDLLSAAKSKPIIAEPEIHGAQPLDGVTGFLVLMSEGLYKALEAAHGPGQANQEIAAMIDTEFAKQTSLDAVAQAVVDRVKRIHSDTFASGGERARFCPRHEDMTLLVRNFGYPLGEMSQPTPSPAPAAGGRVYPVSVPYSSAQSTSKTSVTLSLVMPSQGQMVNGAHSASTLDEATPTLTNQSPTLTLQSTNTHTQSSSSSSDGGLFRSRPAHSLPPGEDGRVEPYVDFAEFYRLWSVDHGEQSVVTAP
Chain of CDK1 CCNA2 (human) (P06493 whole entry, looked up): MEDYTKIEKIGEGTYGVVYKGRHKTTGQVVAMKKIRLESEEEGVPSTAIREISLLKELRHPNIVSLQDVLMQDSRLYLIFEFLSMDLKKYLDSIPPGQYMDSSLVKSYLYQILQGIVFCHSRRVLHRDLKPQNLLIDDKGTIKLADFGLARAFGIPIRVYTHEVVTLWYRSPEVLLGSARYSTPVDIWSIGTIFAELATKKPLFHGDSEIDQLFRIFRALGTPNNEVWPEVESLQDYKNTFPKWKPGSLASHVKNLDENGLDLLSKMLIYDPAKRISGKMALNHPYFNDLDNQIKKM
Chain of CDK1 CCNA2 (human) (P20248 whole entry, looked up): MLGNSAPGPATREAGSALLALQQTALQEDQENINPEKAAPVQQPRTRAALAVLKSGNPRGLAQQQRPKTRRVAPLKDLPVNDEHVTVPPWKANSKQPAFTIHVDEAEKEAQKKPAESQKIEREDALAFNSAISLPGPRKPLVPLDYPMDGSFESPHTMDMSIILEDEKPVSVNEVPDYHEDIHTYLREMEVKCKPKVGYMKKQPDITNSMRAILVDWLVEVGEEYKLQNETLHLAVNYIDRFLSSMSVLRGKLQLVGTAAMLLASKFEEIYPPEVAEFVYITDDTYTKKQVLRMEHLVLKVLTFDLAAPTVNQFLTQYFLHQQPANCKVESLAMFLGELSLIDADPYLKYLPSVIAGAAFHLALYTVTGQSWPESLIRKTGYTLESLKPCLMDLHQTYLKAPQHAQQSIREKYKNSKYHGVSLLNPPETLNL
Chain of MAPK1 (human) (P28482 whole entry, looked up): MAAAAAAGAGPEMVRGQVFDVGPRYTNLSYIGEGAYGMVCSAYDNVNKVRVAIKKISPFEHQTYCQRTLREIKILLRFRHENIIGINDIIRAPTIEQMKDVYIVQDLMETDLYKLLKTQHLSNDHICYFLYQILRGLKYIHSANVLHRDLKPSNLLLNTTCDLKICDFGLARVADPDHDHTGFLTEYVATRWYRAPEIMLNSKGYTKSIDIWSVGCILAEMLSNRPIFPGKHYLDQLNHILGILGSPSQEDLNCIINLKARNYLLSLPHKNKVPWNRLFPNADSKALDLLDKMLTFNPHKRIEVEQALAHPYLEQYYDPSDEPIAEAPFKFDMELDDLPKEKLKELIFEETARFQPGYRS
Chain of AURKC (human) (Q9UQB9 whole entry, looked up): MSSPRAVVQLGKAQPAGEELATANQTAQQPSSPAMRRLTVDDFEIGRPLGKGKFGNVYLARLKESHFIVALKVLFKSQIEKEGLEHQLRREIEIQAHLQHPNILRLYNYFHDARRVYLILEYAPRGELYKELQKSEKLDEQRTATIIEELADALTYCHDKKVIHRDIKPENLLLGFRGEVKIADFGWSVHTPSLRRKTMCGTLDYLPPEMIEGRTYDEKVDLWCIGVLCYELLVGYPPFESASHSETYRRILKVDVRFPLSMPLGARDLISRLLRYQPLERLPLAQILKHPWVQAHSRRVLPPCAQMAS
Chain of DAPK2 (human) (Q9UIK4 whole entry, looked up): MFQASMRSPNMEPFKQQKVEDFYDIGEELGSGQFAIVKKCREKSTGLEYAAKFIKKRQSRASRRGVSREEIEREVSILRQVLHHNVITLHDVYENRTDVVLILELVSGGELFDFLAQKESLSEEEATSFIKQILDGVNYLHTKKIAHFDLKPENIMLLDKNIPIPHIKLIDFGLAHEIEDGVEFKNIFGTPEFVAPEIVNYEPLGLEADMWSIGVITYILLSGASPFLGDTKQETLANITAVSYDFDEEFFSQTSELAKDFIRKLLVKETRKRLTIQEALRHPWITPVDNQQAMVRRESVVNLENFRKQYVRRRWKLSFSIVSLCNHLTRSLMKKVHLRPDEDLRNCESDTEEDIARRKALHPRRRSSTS
Chain of TSSK1B (human) (Q9BXA7 whole entry, looked up): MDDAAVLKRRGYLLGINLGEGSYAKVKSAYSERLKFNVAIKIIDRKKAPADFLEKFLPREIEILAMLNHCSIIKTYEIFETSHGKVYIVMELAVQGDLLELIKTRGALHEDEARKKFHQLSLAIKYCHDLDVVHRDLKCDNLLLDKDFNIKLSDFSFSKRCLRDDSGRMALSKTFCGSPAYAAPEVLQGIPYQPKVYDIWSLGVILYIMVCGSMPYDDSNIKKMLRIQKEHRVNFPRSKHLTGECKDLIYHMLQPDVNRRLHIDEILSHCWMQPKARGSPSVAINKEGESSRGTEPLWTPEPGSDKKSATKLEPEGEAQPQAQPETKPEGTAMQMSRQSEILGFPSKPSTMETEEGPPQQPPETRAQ

CCC(=O)Nc1ccc2ncnc(Nc3cccc(Br)c3)c2c1
residual activity [1]: 107%
residual activity [2]: 102%
residual activity [3]: 103%
residual activity [4]: 82.3%
residual activity [5]: 94%
residual activity [6]: 93.5%
residual activity [7]: 106%
residual activity [8]: 87.9%
residual activity [9]: 90.4%
residual activity [10]: 121%
residual activity [11]: 106%
residual activity [12]: 73.2%
residual activity [13]: 96.5%
residual activity [14]: 91.2%
residual activity [15]: 82.8%
residual activity [16]: 94.4%
residual activity [17]: 99.3%
residual activity [18]: 80.2%
residual activity [19]: 103%
residual activity [20]: 92.5%
residual activity [21]: 90.4%
residual activity [22]: 98.4%
residual activity [23]: 76.1%
residual activity [24]: 83.9%
residual activity [25]: 91.4%
residual activity [26]: 109%
residual activity [27]: 103%
residual activity [28]: 34%
residual activity [29]: 102%
residual activity [30]: 102%
residual activity [31]: 77.7%
residual activity [32]: 96.5%
residual activity [33]: 109%
residual activity [34]: 90%
residual activity [35]: 78.4%
residual activity [36]: 105%
residual activity [37]: 94.3%
residual activity [38]: 93.2%
residual activity [39]: 95.5%
residual activity [40]: 96.9%
residual activity [41]: 96.2%
residual activity [42]: 79.1%

Nc1ncnc2[nH]nc(Nc3ccc(F)cc3)c12
residual activity [1]: 102%
residual activity [2]: 96%
residual activity [3]: 102%
residual activity [4]: 121%
residual activity [5]: 100%
residual activity [6]: 61.5%
residual activity [7]: 82%
residual activity [8]: 93%
residual activity [9]: 93.5%
residual activity [10]: 85.5%
residual activity [11]: 78.1%
residual activity [12]: 96.4%
residual activity [13]: 104%
residual activity [14]: 94.3%
residual activity [15]: 79.5%
residual activity [16]: 82.9%
residual activity [17]: 112%
residual activity [18]: 93.9%
residual activity [19]: 86%
residual activity [20]: 96.6%
residual activity [21]: 111%
residual activity [22]: 96.7%
residual activity [23]: 95.6%
residual activity [24]: 90.7%
residual activity [25]: 97.3%
residual activity [26]: 101%
residual activity [27]: 97.1%
residual activity [28]: 101%
residual activity [29]: 100%
residual activity [30]: 108%
residual activity [31]: 80.8%
residual activity [32]: 104%
residual activity [33]: 94.2%
residual activity [34]: 96.7%
residual activity [35]: 82.5%
residual activity [36]: 104%
residual activity [37]: 90.1%
residual activity [38]: 89.5%
residual activity [39]: 96.2%
residual activity [40]: 67.7%
residual activity [41]: 87.6%
residual activity [42]: 92%

N#C/C(=C(/N)Sc1ccc(N)cc1)c1ccccc1C(F)(F)F
residual activity [1]: 103%
residual activity [2]: 97.5%
residual activity [3]: 97.7%
residual activity [4]: 89.9%
residual activity [5]: 93.5%
residual activity [6]: 100%
residual activity [7]: 99.9%
residual activity [8]: 91.2%
residual activity [9]: 91.8%
residual activity [10]: 112%
residual activity [11]: 101%
residual activity [12]: 103%
residual activity [13]: 101%
residual activity [14]: 102%
residual activity [15]: 96%
residual activity [16]: 100%
residual activity [17]: 103%
residual activity [18]: 73.8%
residual activity [19]: 109%
residual activity [20]: 98%
residual activity [21]: 108%
residual activity [22]: 103%
residual activity [23]: 115%
residual activity [24]: 80.7%
residual activity [25]: 101%
residual activity [26]: 96.1%
residual activity [27]: 102%
residual activity [28]: 93%
residual activity [29]: 98%
residual activity [30]: 102%
residual activity [31]: 86%
residual activity [32]: 94.4%
residual activity [33]: 102%
residual activity [34]: 97.9%
residual activity [35]: 93.1%
residual activity [36]: 99.2%
residual activity [37]: 99.3%
residual activity [38]: 101%
residual activity [39]: 101%
residual activity [40]: 106%
residual activity [41]: 95.3%
residual activity [42]: 98.3%
